Data reported in US10730836B2, “Forms of apremilast” (Johnson Matthey Public Limited Company, priority 2016, dated 2020).

Assays:
[1] = Solid form stability under stressed conditions (45° C., relative humidity>95%); format: physicochemical; settings: under 45° C. and humid conditions (relative humidity>95%)
Protocol: (§1) Apremilast Form H, a solvate, is a unique crystalline phase. […] FIG. 1 is a representative XPRD pattern for a representative sample of apremilast Form H made according to Example 1. Apremilast Form H is stable under stressed conditions, i.e. at under 45° C. and humid conditions (relative humidity>95%).
as §1, with “I,” for “H,”, “2” for “1”, “XRPD” for “XPRD”, “I” for “H”, “2.” for “1.”

[2] = Drying under vacuum at 45° C. (solid form change); format: physicochemical; settings: dried under vacuum at 45° C.
Protocol: Apremilast Form J, a solvate, is a unique crystalline phase. […] FIG. 3 is a representative XRPD pattern for a representative sample of apremilast Form J made according to Example 3.
(§2) Apremilast Form M, a solvate, is a unique crystalline phase. FIG. 5 is a representative XRPD pattern for a representative sample of apremilast Form M made according to Example 5.
[…] The resulting solids are analyzed by XRPD and identified as apremilast Form K.

[3] = Moisture uptake on exposure to air (DSC/TGA); format: physicochemical; settings: DSC thermogram and TGA plot show water in sample
Protocol: DSC data were collected using a TA Instruments Q10 DSC. Approximately, samples (2-8 mg) were placed in unsealed but covered hermetic alodined aluminum sample pans and scanned from 30 to 300° C. at a rate of 10° C./min under a nitrogen purge of 50 mL/min.
TGA data were collected using a TA Instruments TGA Q500. Approximately, samples (5-10 mg) were placed in an open, pre-tared aluminum sample pan and scanned from 25 to 300° C. at a rate of 10° C./min using a nitrogen purge at 60 mL/min.
(§3) Apremilast Form K, an anhydrous form, is a unique crystalline phase. […] FIG. 4 is a representative XRPD pattern for a representative sample of apremilast Form K made according to Example 4.

[4] = Exposure to humidity (XRPD); format: physicochemical; settings: exposed to high humidity
Protocol: (§4) XRPD patterns were obtained using a Bruker D8 Advance equipped with a Cu Kα radiation source (λ=1.54° A), a 9-position sample holder and a LYNXEYE super speed detector. Samples were placed on zero-background, silicon plate holders for analysis. One skilled in the art would recognize that the ° 2θ values and the relative intensity values are generated by performing a peak search on the measured data and the d-spacing values are calculated by the instrument from the ° 2θ values using Bragg's equation. One skilled in the art would further recognize that the relative intensity for the measured peaks may vary as a result of sample preparation, orientation and instrument used, for example.
as §3, §2

phosphodiesterase (PDE4) = settings: cited from earlier work
[5] = test system: human rheumatoid synovial cells; settings: cited from earlier work
[6] = Prolonged slurry (form conversion, XRPD); format: physicochemical; settings: XRPD FIG. 6
Protocol: as §4, §2

For `CCOc1cc([C@@H](CS(C)(=O)=O)N2C(=O)c3cccc(NC(C)=O)c3C2=O)ccc1OC` [Apremilast Form H, (+)-2-[1-(3-ethoxy-4-methoxyphenyl)-2-methylsulfonylethyl]-4-acetylaminoisoindoline-1,3-dione], the “stability under stressed conditions” value [1] was “stable”.

For `CCOc1cc([C@@H](CS(C)(=O)=O)N2C(=O)c3cccc(NC(C)=O)c3C2=O)ccc1OC` [Apremilast Form J, (+)-2-[1-(3-ethoxy-4-methoxyphenyl)-2-methylsulfonylethyl]-4-acetylaminoisoindoline-1,3-dione], the “solid form behaviour when dried under vacuum” value [2] was “loses formic acid when dried under vacuum at 45 °C and undergoes a form change, resulting in the anhydrous Form K”.

With `CCOc1cc([C@@H](CS(C)(=O)=O)N2C(=O)c3cccc(NC(C)=O)c3C2=O)ccc1OC` [Form K, (+)-2-[1-(3-ethoxy-4-methoxyphenyl)-2-methylsulfonylethyl]-4-acetylaminoisoindoline-1,3-dione] the “moisture uptake when exposed to air” value [3] was “picks up moisture” and the “form change when exposed to humidity” value [4] was “does not undergo a significant change”.

In the case of `CCOc1cc([C@@H](CS(C)(=O)=O)N2C(=O)c3cccc(NC(C)=O)c3C2=O)ccc1OC` [Apremilast, (+)-2-[1-(3-ethoxy-4-methoxyphenyl)-2-methylsulfonylethyl]-4-acetylaminoisoindoline-1,3-dione], the PDE4 inhibition (phosphodiesterase (PDE4)) is listed as “inhibits PDE4” and the “inhibition of spontaneous production of TNF-alpha” value [5] is listed as “inhibits spontaneous production of TNF-alpha”.

In the case of `CCOc1cc([C@@H](CS(C)(=O)=O)N2C(=O)c3cccc(NC(C)=O)c3C2=O)ccc1OC` [Form M, (+)-2-[1-(3-ethoxy-4-methoxyphenyl)-2-methylsulfonylethyl]-4-acetylaminoisoindoline-1,3-dione], the “solid form behaviour when dried under vacuum” value [2] is reported as “tends to lose some of the acetic acid when dried under vacuum at 45 °C and results in a semi-crystalline form” and the “form conversion upon prolonged slurry” value [6] is reported as “converts to apremilast”.
